Each block holds one compound with its values, some of them ahead of it.
Assays:
GPR3 = biological target: T1, GPR3 (Homo sapiens, UniProt P46089); assay: GPR3 antagonist functional cAMP assay (LANCE Ultra cAMP TR-FRET, CHO cells stably expressing GPR3); type: cell-based
T1 construct: expressed in transfected cells; host or cells: CHO cells
Procedure, shortened: (§1)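 We measure cAMP by TR-FRET (665 nm) in cells held in glucose-containing Krebs-Ringer buffer with BSA and a PDE inhibitor, after a 45 min, 37 °C compound incubation. IC50s derive from a four-parameter logistic fit.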

GPR6 = biological target: T2, GPR6 (Homo sapiens, UniProt P46095); assay: GPR6 antagonist functional cAMP assay (LANCE Ultra cAMP TR-FRET, CHO cells stably expressing GPR6); type: cell-based
T2 construct: expressed in transfected cells; host or cells: CHO cells
Procedure, shortened: as §1

[1] = CHO cells stably expressing GPR3, cAMP assay
[2] = CHO cells stably expressing GPR6, cAMP assay
[3] = CHO cells stably expressing GPR3, cAMP assay (Example 24)
[4] = CHO cells stably expressing GPR6, cAMP assay (Example 24)
[5] = procedure as described in Example 24

T1 sequence (P46089 whole entry, species assumed): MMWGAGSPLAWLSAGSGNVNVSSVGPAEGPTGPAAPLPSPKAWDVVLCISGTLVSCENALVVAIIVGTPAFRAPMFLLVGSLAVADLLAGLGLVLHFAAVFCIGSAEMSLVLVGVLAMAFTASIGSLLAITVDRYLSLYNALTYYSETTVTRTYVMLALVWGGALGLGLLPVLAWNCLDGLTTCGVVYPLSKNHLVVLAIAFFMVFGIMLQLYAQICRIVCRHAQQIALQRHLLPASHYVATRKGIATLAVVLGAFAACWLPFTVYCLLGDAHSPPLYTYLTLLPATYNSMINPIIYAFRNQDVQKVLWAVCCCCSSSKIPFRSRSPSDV
T2 sequence (P46095 whole entry): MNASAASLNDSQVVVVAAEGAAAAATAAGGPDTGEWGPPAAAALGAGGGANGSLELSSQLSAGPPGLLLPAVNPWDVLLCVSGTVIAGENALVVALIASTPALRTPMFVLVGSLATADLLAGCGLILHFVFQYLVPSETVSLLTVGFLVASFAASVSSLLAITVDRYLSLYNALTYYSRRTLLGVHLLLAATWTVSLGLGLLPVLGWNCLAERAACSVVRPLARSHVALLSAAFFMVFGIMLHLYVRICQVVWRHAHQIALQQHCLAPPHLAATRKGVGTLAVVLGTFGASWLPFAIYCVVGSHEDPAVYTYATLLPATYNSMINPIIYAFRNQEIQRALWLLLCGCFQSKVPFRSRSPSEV

- IC50 (GPR3; procedure of Example 24): 1 to 30 µM
- IC50 (GPR6; procedure of Example 24): 0.1 to 1 µM
Compound: CC(=O)N1CCc2nc(N3CCN(Cc4ccc(F)cc4F)CC3)c(-c3cnn(C)c3)nc2C1 [Compound 352, 1-(2-{4-[(2,4-difluorophenyl)methyl]piperazin-1-yl}-3-(1-methyl-1H-pyrazol-4-yl)-5H,6H,7H,8H-pyrido[3,4-b]pyrazin-6-yl)ethan-1-one]

- IC50 (GPR3; [1]): 0.1 to 1 µM
- IC50 (GPR6; [2]): 0.1 to 1 µM
Compound: CC(=O)N1CCc2nc(N3CCN(Cc4ccc(F)cc4F)CC3)c(-c3ccc(F)c(N)n3)nc2C1 [Compound 609, 1-[3-(6-amino-5-fluoro-2-pyridyl)-2-{4-[(2,4-difluorophenyl)methyl]-1-piperazinyl}-5,6,7,8-tetrahydro-1,4,6-triaza-6-naphthyl]-1-ethanone]

- IC50 (GPR3; [3]): 1 to 30 µM
- IC50 (GPR6; [4]): 1 to 30 µM
Compound: COc1cc2nc(N3CCC(Oc4ccc(F)cc4F)CC3)c(-c3cnn(C)c3)nc2cn1 [Compound 410, 2-(4-(2,4-difluorophenoxy)piperidin-1-yl)-7-methoxy-3-(1-methyl-1H-pyrazol-4-yl)pyrido[3,4-b]pyrazine]

- IC50 (GPR3; [3]): 1 to 30 µM
- IC50 (GPR6; [4]): 1 to 30 µM
Compound: CNC(=O)N1CCc2nc(N3CCC(Oc4ccc(F)cc4F)CC3)c(-c3cnn(C4CCCCO4)c3)nc2C1 (stereo not drawn) [Compound 181, 2-[4-(2,4-difluorophenoxy)piperidin-1-yl]-N-methyl-3-[1-(oxan-2-yl)-1H-pyrazol-4-yl]-5H,6H,7H,8H-pyrido[3,4-b]pyrazine-6-carboxamide]

- IC50 (GPR3; [3]): 1 to 30 µM
- IC50 (GPR6; [4]): 1 to 30 µM
Compound: O=C(CN1CCOCC1)N1CCc2nc(N3CCC(Oc4ccc(F)cc4F)CC3)c(-c3cnn(C4CCCCO4)c3)nc2C1 (stereo not drawn) [Compound 202, 1-{2-[4-(2,4-difluorophenoxy)piperidin-1-yl]-3-[1-(oxan-2-yl)-1H-pyrazol-4-yl]-5H,6H,7H,8H-pyrido[3,4-b]pyrazin-6-yl}-2-(morpholin-4-yl)ethan-1-one]

- IC50 (GPR3; [3]): 1 to 30 µM
- IC50 (GPR6; [4]): 1 to 30 µM
Compound: COCn1ccnc1-c1nc2c(nc1N1CCC(Oc3ccc(F)cc3F)CC1)CCN(C(C)=O)C2 [Compound 67, 1-{2-[4-(2,4-difluorophenoxy)piperidin-1-yl]-3-[1-(methoxymethyl)-1H-imidazol-2-yl]-5H,6H,7H,8H-pyrido[3,4-b]pyrazin-6-yl}ethan-1-one]

- IC50 (GPR3; procedure of Example 24): 1 to 30 µM
- IC50 (GPR6; procedure of Example 24): 1 to 30 µM
Compound: CC(=O)Nc1cc2nc(N3CCN(Cc4ccc(F)cc4F)CC3)c(-c3cnn(C)c3)nc2cn1 [Compound 297, N-(2-{4-[(2,4-difluorophenyl)methyl]piperazin-1-yl}-3-(1-methyl-1H-pyrazol-4-yl)pyrido[3,4-b]pyrazin-7-yl)acetamide]

- IC50 (GPR3; procedure of Example 24): 1 to 30 µM
- IC50 (GPR6; procedure of Example 24): 0.1 to 1 µM
Compound: CC(C)(O)[C@](C)(O)c1cc2nc(N3CCC(Oc4ccc(F)cc4F)CC3)c(-c3cnn(C(F)F)c3)nc2cn1 (single isomer, unassigned) [Compound 655]

- IC50 (GPR3; [1]): 0.1 to 1 µM
- IC50 (GPR6; [2]): < 0.1 µM
Compound: CC(C)(O)C(O)c1cc2nc(-c3cnn(C4CC4)c3)c(N3CCN(Cc4ccc(F)cc4F)CC3)nc2cn1 (single isomer, unassigned) [Compound 600]

- IC50 (GPR3; procedure of Example 24): 1 to 30 µM
- IC50 (GPR6; procedure of Example 24): < 0.1 µM
Compound: CCOC(=O)N1CCc2nc(N3CCC(Oc4ccc(F)cc4F)CC3)c(-c3cnn(CC)c3)nc2C1 [Compound 299, ethyl 2-[4-(2,4-difluorophenoxy)piperidin-1-yl]-3-(1-ethyl-1H-pyrazol-4-yl)-5H,6H,7H,8H-pyrido[3,4-b]pyrazine-6-carboxylate]

- IC50 (GPR3; [1]): 1 to 30 µM
- IC50 (GPR6; [2]): 1 to 30 µM
Compound: CC(=O)N1CCc2nc(N3CCC(Oc4ccc(Br)cn4)CC3)c(-c3cnn(C)c3)nc2C1 [Compound 513, 1-{2-[4-(5-bromo-2-pyridyloxy)-1-piperidyl]-3-(1-methyl-4-pyrazolyl)-5,6,7,8-tetrahydro-1,4,6-triaza-6-naphthyl}-1-ethanone]

- IC50 (GPR3; [3]): 1 to 30 µM
- IC50 (GPR6; [4]): 0.1 to 1 µM
Compound: Cn1cc(-c2nc3cnc([C@@H](O)C(C)(C)O)cc3nc2N2CCC(Oc3ccc(F)cc3F)CC2)cn1 (single isomer, unassigned) [Compound 379, (Rel-R)-1-(2-(4-(2,4-difluorophenoxy)piperidin-1-yl)-3-(1-methyl-1H-pyrazol-4-yl)pyrido[3,4-b]pyrazin-7-yl)-2-methylpropane-1,2-diol]

- IC50 (GPR3; [1]): 1 to 30 µM
- IC50 (GPR6; [2]): 0.1 to 1 µM
Compound: CC(C)(O)[C@@H](O)c1cc2nc(N3CCN(Cc4ccc(F)cc4F)CC3)c(-c3cnn(CF)c3)nc2cn1 (single isomer, unassigned) [Compound 599]

- IC50 (GPR3; procedure of Example 24): 1 to 30 µM
- IC50 (GPR6; procedure of Example 24): 1 to 30 µM
Compound: Fc1ccc(F)c(CN2CCN(c3nc4cnc(-c5cnn(C(F)F)c5)cc4nc3-c3cnn(C(F)F)c3)CC2)c1 [Compound 774, 2,7-bis [1-(difluoromethyl)-4-pyrazolyl]-3-{4-[(2,5-difluorophenyl)methyl]-1-piperazinyl}-1,4,6-triazanaphthalene]

- IC50 (GPR3; procedure of Example 24): 1 to 30 µM
- IC50 (GPR6; procedure of Example 24): 0.1 to 1 µM
Compound: CCn1cc(-c2nc3cc(C(C)(O)C(C)(C)O)ncc3nc2N2CCC(Oc3ccc(F)cc3F)CC2)cn1 (single isomer, unassigned) [Compound 740]

- IC50 (GPR3; [3]): 1 to 30 µM
- IC50 (GPR6; [4]): 0.1 to 1 µM
Compound: COc1ccc(OC2CCN(c3nc4c(nc3-c3cnn(C)c3)CN(C(C)=O)CC4)CC2)c(F)c1 [Compound 452, 1-{2-[4-(2-fluoro-4-methoxyphenoxy)piperidin-1-yl]-3-(1-methyl-1H-pyrazol-4-yl)-5H,6H,7H,8H-pyrido[3,4-b]pyrazin-6-yl}ethan-1-one]

- IC50 (GPR3; [3]): 1 to 30 µM
- IC50 (GPR6; [4]): 1 to 30 µM
Compound: CC(=O)N1CCc2nc(-c3cccc(=O)[nH]3)c(N3CCC(Oc4ccc(F)cc4F)CC3)nc2C1 [Compound 167, 6-{6-acetyl-3-[4-(2,4-difluorophenoxy)piperidin-1-yl]-5H,6H,7H,8H-pyrido[3,4-b]pyrazin-2-yl}-1,2-dihydropyridin-2-one]

- IC50 (GPR3; [3]): 1 to 30 µM
- IC50 (GPR6; [4]): 1 to 30 µM
Compound: CC(=O)N1CCc2nc(N3CCC(Oc4ccc(F)cc4F)CC3)c(-c3cnn4c3CNCC4)nc2C1 [Compound 108, 1-{2-[4-(2,4-difluorophenoxy)piperidin-1-yl]-3-{4H,5H,6H,7H-pyrazolo[1,5-a]pyrazin-3-yl}-5H,6H,7H,8H-pyrido[3,4-b]pyrazin-6-yl}ethan-1-one]

- IC50 (GPR3; [3]): 1 to 30 µM
- IC50 (GPR6; [4]): 0.1 to 1 µM
Compound: Cn1cc(-c2nc3cncc(N)c3nc2N2CCC(Oc3ccc(F)cc3F)CC2)cn1 [Compound 459, 2-[4-(2,4-difluorophenoxy)piperidin-1-yl]-3-(1-methyl-1H-pyrazol-4-yl)pyrido[3,4-b]pyrazin-8-amine]

- IC50 (GPR3; [5]): 1 to 30 µM
- IC50 (GPR6; [5]): 0.1 to 1 µM
Compound: Fc1ccc(Cl)cc1CN1CCN(c2nc3ccncc3nc2-c2cn[nH]c2)CC1 [Compound 4, 1-[(5-chloro-2-fluorophenyl)methyl]-4-[3-(1H-pyrazol-4-yl)pyrido[3,4-b]pyrazin-2-yl]piperazine]

- IC50 (GPR3; [1]): 0.1 to 1 µM
- IC50 (GPR6; [2]): 1 to 30 µM
Compound: CC(=O)N1CCc2nc(N3CCC(C(C)(O)c4ccc(F)cc4F)CC3)c(-c3cnn(C)c3)nc2C1 (stereo not drawn) [Compound 558, 1-(2-{4-[1-(2,4-difluorophenyl)-1-hydroxyethyl]-1-piperidyl}-3-(1-methyl-4-pyrazolyl)-5,6,7,8-tetrahydro-1,4,6-triaza-6-naphthyl)-1-ethanone]

- IC50 (GPR3; [1]): 1 to 30 µM
- IC50 (GPR6; [2]): 1 to 30 µM
Compound: CC(=O)N1CCc2nc(N3CCN(Cc4cccc(C#N)c4)CC3)c(-c3cnn(C)c3)nc2C1 [Compound 512, m-({4-[6-acetyl-3-(1-methyl-4-pyrazolyl)-5,6,7,8-tetrahydro-1,4,6-triaza-2-naphthyl]-1-piperazinyl}methyl)benzonitrile]

- IC50 (GPR3; procedure of Example 24): 1 to 30 µM
- IC50 (GPR6; procedure of Example 24): ≥ 30 µM
Compound: COc1cccc(CN2CCN(c3nc4c(nc3-c3cnn(C)c3)CN(C(C)=O)CC4)CC2)c1F [Compound 318, 1-(2-{4-[(2-fluoro-3-methoxyphenyl)methyl]piperazin-1-yl}-3-(1-methyl-1H-pyrazol-4-yl)-5H,6H,7H,8H-pyrido[3,4-b]pyrazin-6-yl)ethan-1-one]

- IC50 (GPR3; [3]): 1 to 30 µM
- IC50 (GPR6; [4]): 0.1 to 1 µM
Compound: CC(C)OC(=O)N1CCc2nc(N3CCC(Oc4ccc(F)cc4F)CC3)c(-c3cn[nH]c3)nc2C1 [Compound 121, propan-2-yl 2-[4-(2,4-difluorophenoxy)piperidin-1-yl]-3-(1H-pyrazol-4-yl)-c5H,6H,7H,8H-pyrido[3,4-b]pyrazine-6-carboxylate]

- IC50 (GPR3; procedure of Example 24): 0.1 to 1 µM
- IC50 (GPR6; procedure of Example 24): < 0.1 µM
Compound: CC(=O)N1CCc2nc(N3CCC([C@H](F)c4ccc(F)cc4F)CC3)c(-c3cnn(C)c3)nc2C1 (single isomer, unassigned) [Compound 658]

- IC50 (GPR3; [3]): 1 to 30 µM
- IC50 (GPR6; [4]): 0.1 to 1 µM
Compound: O=C(C1CCCN1)N1CCc2nc(N3CCC(Oc4ccc(F)cc4F)CC3)c(-c3cn[nH]c3)nc2C1 (stereo not drawn) [Compound 178, 4-(2,4-difluorophenoxy)-1-[3-(1H-pyrazol-4-yl)-6-(pyrrolidine-2-carbonyl)-5H,6H,7H,8H-pyrido[3,4-b]pyrazin-2-yl]piperidine]

- IC50 (GPR3; [3]): 1 to 30 µM
- IC50 (GPR6; [4]): 1 to 30 µM
Compound: Fc1ccc(OC2CCN(c3nc4cnccc4nc3-c3cnn(C4CCCCO4)c3)CC2)c(F)c1 (stereo not drawn) [Compound 97, 4-(2,4-difluorophenoxy)-1-{2-[1-(oxan-2-yl)-1H-pyrazol-4-yl]pyrido[3,4-b]pyrazin-3-yl}piperidine]

- IC50 (GPR3; [1]): 1 to 30 µM
- IC50 (GPR6; [2]): 0.1 to 1 µM
Compound: CC(C)(O)[C@@H](O)c1cc2nc(N3CCC(Oc4ccc(F)cc4F)CC3)c(-c3cnn(C(F)F)c3)nc2cn1 (single isomer, unassigned) [Compound 555]

- IC50 (GPR3; [5]): 1 to 30 µM
- IC50 (GPR6; [5]): 1 to 30 µM
Compound: CC(=O)N1CCc2nc(N3CCC(Oc4ccc(F)cc4F)CC3)c(-c3ccn[nH]3)nc2C1 [Compound 11, 1-{2-[4-(2,4-difluorophenoxy)piperidin-1-yl]-3-(1H-pyrazol-5-yl)-5H,6H,7H,8H-pyrido[3,4-b]pyrazin-6-yl}ethan-1-one]

- IC50 (GPR3; [1]): 1 to 30 µM
- IC50 (GPR6; [2]): 0.1 to 1 µM
Compound: CC(=O)N1CCc2nc(N3CCC(Oc4ccc(F)cc4C#N)CC3)c(-c3cnn(C)c3)nc2C1 [Compound 497, 2-{1-[6-acetyl-3-(1-methyl-4-pyrazolyl)-5,6,7,8-tetrahydro-1,4,6-triaza-2-naphthyl]-4-piperidyloxy}-5-fluorobenzonitrile]
